Laboratory results taken from paper PMC12598616, “Design and optimization of caspase-1-responsive fluorescent probes for pyroptosis imaging and anti-pyroptosis drug screening” (Chemical Science, 2025).

Experiments:
caspase-8 = experiment: Selectivity of probes: caspase-8; type: biochemical, human; conditions: caspase-8 1 μg/mL, 37 °C, 2 h, λex 510 nm, λem 585 nm
Text: The resin used for SPPS was purchased from GL Biochem (Shanghai, China). Lipopolysaccharide (LPS, L2630), Nigericin and ATP (11140965001) were purchased from Merck (Shanghai, China) and Invitrogen (Shanghai, China), respectively. Cell culture plates were sourced from Wuxi NEST Biotechnology. Recombinant human caspase-1, caspase-3, caspase-4, and caspase-8 were obtained from Abcam and MCE (Shanghai, China). Anti-cleaved caspase-1 antibody, anti-GAPDH antibody, and goat anti-Rabbit/anti-mouse lgG/HRP were purchased from CST (USA) and Beyotime […]
(Shanghai, China). […]
Medical College (ethical approval number ZJCLA-IACUC-20011003).
(also on this page, place not known: Wang,*f, Wang*abg Supplementary Information (SI) for Chemical Science. This journal is © The Royal Society of Chemistry 2025)
(1 picture or pasted object on this page, not shown here) […]
mixture was stirred for 3 h. […]
To investigate the sensitivity of the probes for caspase-1, varying concentration of caspase-1 (0, 0.2, 0.4, 0.6, 0.8, 1.0, 1.25, 1.5, 1.75, 2, 2.5, 3 U/mL) were incubated with FPy1 (5 μM), YPy1 (5 μM) and WPy1 (5 μM) respectively in caspase-1 assay buffer (50 mM HEPES, 50 mM NaCl, 0.1 % chaps, 5 % glycerol, 10 mM DTT, 10 mM EDTA) at 37 °C for 2 hours. Fluorescence spectra were recorded using Hitachi F-2700 spectrophotometer with an excitation at 510 nm (Photomultiplier voltage 700 V; Slit widths ex: 10 nm and em =5.0 nm). The fluorescence intensity of FPy1, YPy1 and WPy1 at 585 nm were plotted against the concentration of caspase-1, and a linear regression fitted from the corresponding concentration of caspase-1, and linear regression was applied to determine the slope k. The limit of detection (LoD) was calculated from 3σ/k, in which σ represents the standard deviation of 15 blank measurements. […]
The fluorescence intensity at 585 nm was measured on a Tecan Infinite M1000 Multi-function microplate reader (λex = 510 nm) at 37 °C every 2 minutes. The K M value of probes was determined from the Lineweaver-Burk plot. […]

Cas-1 in THP-1 cells = experiment: Confocal fluorescence imaging of Cas-1 in THP-1 cells; type: cell-based; conditions: for intracellular fluorescence intensity, ATP stimulation / intracellular fluorescence intensity, Nig stimulation: LPS 1 μg/mL 4 h, probe 5 μM 1 h; for intracellular fluorescence intensity, ATP stimulation: then ATP 2 mM 0, 1, 2 h; for intracellular fluorescence intensity, Nig stimulation: then Nig 10 μM 0, 1, 2 h
Protocol: To assess the capability of FPy1 and YPy1 to monitor endogenous Cas-1, the classic NLRP3 inflammasome-mediated Cas-1 activation model was established in THP-1 cells. THP-1 cells were initially stimulated with LPS (1 μg mL^−1) for 4 h to prime the production of NLRP3 inflammasome-associated proteins. Subsequently, the cells were stimulated with Nigericin (Nig, 10 μM) or ATP (2 mM) for various durations to induce the activation of Cas-1 and the pyroptosis-related pathway. The THP-1 cells were further stained with FPy1 or Ypy1 (5 μM) for 1 h and imaged (Fig. 3a). […] Western blot (WB) analysis confirmed that, regardless of whether Nig or ATP was used as the stimulant, the level of activated Cas-1 was consistent with the fluorescence imaging results (Fig. S8a–d). […] Therefore, FPy1 may be a more suitable candidate for monitoring low caspase-1 levels in subsequent imaging studies. […] To investigate the distribution of FPy1 within cells, THP-1 cells were co-stained with FPy1 and commercially available organelle-tracking dyes, including Mito-Tracker Green (mitochondria), Golgi-Tracker Green (Golgi apparatus), Lyso-Tracker Green (lysosomes) and ER-Tracker Green (endoplasmic reticulum). All dyes were imaged in the green fluorescence channel to avoid overlap with the red emission of FPy1 (Fig. 3f–i). […] The corresponding Pearson's correlation coefficients for mitochondria, Golgi apparatus, lysosomes, and endoplasmic reticulum were 0.4954, 0.4320, 0.5682, and 0.4448, respectively. […] To further confirm the specificity of FPy1 for Cas-1 imaging in living cells, THP-1 cells with Cas-1 knockdown via siRNA were constructed. […]
Intracellular imaging with FPy1 in THP-1 cells
THP-1 cells were seeded in dishes and cultured overnight. After stimulation with LPS (1 μg/mL in RPMI 1640 medium) for 4 hours, the cells were further treated with Nig (10 μM) or ATP (2 mM) for 0, 1, 2 hours. The medium was then replaced with fresh medium with FPy1 (5 μM), and cells were incubated at 37 °C for 1 hour before being washed twice […]
with PBS. […]
After washing, the THP-1 cells were separately incubated with commercially available dyes targeting mitochondria (Mito-Tracker Green), lysosomes (Lyso-Tracker Green), endoplasmic reticulum (ER-Tracker Green), and Golgi apparatus (Golgi-Tracker Green) for 30 minutes. […]
Nucleus pulposus spheroid cultivation […]
Intracellular imaging in nucleus pulposus cells and 3D cell spheroids
The primary nucleus pulposus cells or 3D cell spheroids were seeded in dishes and cultured overnight. […]

Substance	fluorescence response to caspase-8 (caspase-8)	fluorescence increase relative to YPy1 (Cas-1 in THP-1 cells; 2 h of Nig or ATP stimulation, probe 5 μM)	intracellular fluorescence intensity, ATP stimulation (Cas-1 in THP-1 cells)	intracellular fluorescence intensity, Nig stimulation (Cas-1 in THP-1 cells)
–FLTDG– [FPy1, RhoB donor, hNR quencher]	almost no response	slightly higher than that of YPy1	increased with prolonged stimulation time	increased with prolonged stimulation time
–YVADG– [YPy1, caspase-1-responsive FRET probe with recognition peptide –YVADG–; RhoB donor, hNR quencher]	almost no response		increased with prolonged stimulation time	increased with prolonged stimulation time
